Laboratory results: patent publication US20080305092A1, “Methods of treating autoimmune disease via CTLA-4IG” (THE REGENTS OF THE UNIVERSITY OF MICHIGAN, priority 1993, published 2008)

What was measured:
Jurkat line JHMI-2.2 = experiment: Cell death of Jurkat cells, visual grading and trypan blue; assay type: cell-based, human; conditions: scored after 1 to 3 days; 9.3 mAb 10 μg/ml, carbacol 30 μM
Procedure: A series of experiments were done to test whether anti-CD28 mAb might prevent cell death in mature T cells. Jurkat leukemia cells are commonly used as an example of mature T cells that mimic physiologic effects found in peripheral blood T cells. […] The Jurkat line JHMI-2.2 was obtained from A. Weiss (UCSF); the muscarinic M1 receptor subtype has been transfected and is stably expressed in these cells. JHMI-2.2 cells, 0.3×10^6/well, were added to culture wells in complete medium, or to wells that contained plastic-adsorbed anti-CD3 mAb G19-4, in the presence or absence of 9.3 mAb 10 μg/ml, or 9.3 mAb alone. Cell death was scored after 1 to 3 days of culture and graded as 0 (none), 1+(20 to 70% of cells dead), and 2+(70 to 100% of cells dead), and was determined by visual inspection of the wells, and confirmed by trypan blue permeability.

CD28^+ T cells [1] = experiment: Lymphokine secretion (IL-2, TNF-α/LT, IFN-γ, GM-CSF) by stimulated CD28+ T cells, with or without cyclosporine; assay type: cell-based, human; conditions: supernatant at 24 h; CSP 0.6 μg/ml where in label
CD28^+ T cells [2] = experiment: Cell cycle analysis (S+G2+M), propidium iodide flow cytometry; assay type: cell-based, human; conditions: 48 h after stimulation
Procedure: In separate experiments, the relative levels of IL-2 for each of the culture conditions above were independently confirmed using a commercially available ELISA assay (Genzyme Corp., Boston, Mass.). TNF-α/LT levels were measured using a semi-automated L929 fibroblast lytic assay as previously described by Kunkel et al., J. Biol. Chem., 263:5380-5384 (1988). Units of TNF-α/LT were defined using an internal standard for TNF-α (Genzyme Corp., Boston Mass.). […] IFN-γ was measured by radioimmunoassay using a commercially available kit (Centocor, Malvern, Pa.). Units for IFN-γ were determined from a standard curve using ^125I-labeled human IFN-γ provided in the test kit. GM-CSF was detected by stimulation of proliferation of the human GM-CSF-dependent cell line AML-193, as described by Lange et al., Blood, 70:192-199 (1987), in the presence of neutralizing monoclonal antibodies to TNF-α and LT. The ^3H-thymidine uptake induced by 10 ng/ml of purified GM-CSF (Genetics Institute, Cambridge, Mass.) was defined as 100 U. Separate aliquots of cells were recovered 48 h after stimulation and assayed for the percentage of cells in late stages of the cell cycle (S+G2+M) by staining of cells with propidium iodide and analysis by flow cytometry as previously described by Thompson et al., Nature, 314:363-366 (1985). […]

[3] = test system: CD28-stimulated IL-2 production of T cells; experiment: CD28-stimulated IL-2 production with or without herbimycin A, bioassay; conditions: for IL-2: cells cultured in the single agent only, 24 h
CD28^+ T cells [4] = experiment: T cell proliferation (3H-thymidine) in the presence of cyclosporine or dexamethasone; assay type: cell-based, human
Procedure: T cells, enriched by nylon wool filtration as described by Julius, et al., Euro. […] The above combinations also included […] titrations (from 25 ng/ml to 1.6 μg/ml) of cyclosporine (CSP) (Sandoz, Hanover, N.J.) dissolved in ethanol-Tween 80 as described by Wiesinger, et al., Immunobiol., 156:454-463 (1979).
^3H-thymidine incorporation was measured on day 3 of culture and the results representative of eight independent experiments are depicted in FIG. 3. […] Table 6 below illustrates the effects of cyclosporine on CD3-induced proliferation of CD28^+ T cells cultured at approximately 5×10^4 cells/well in flat-bottomed 96-well microtiter plates (CoStar, Cambridge, Mass.) under the following conditions: immobilized Mab G19-4; or immobilized mAb G19-4 and mAb 9.30 100 ng/ml; or immobilized mAb G19-4 and PMA 1 ng/ml; or Mab 9.3 100 ng/ml and PMA 1 ng/ml. Cyclosporine was prepared as above and included in the cultures at 0, 0.2, 0.4, 0.8, 1.2 μg/ml.
^3H-thymidine incorporation was determined on day 3 of culture as above. […] CD28^+ T cells cultured in the absence of cyclosporine were given cyclosporine diluent. ^3H-thymidine incorporation of cells cultured in medium, or PMA, or monoclonal antibody 9.3 only were less than 150 cpm.

CD28^+ T cells [5] = experiment: IL-4, IL-5, IFN and IL-2 in supernatants by ELISA, initial stimulation and restimulation
Procedure: Supernatants from the cell culture were analyzed for lymphokine concentration using commercially available ELISA kits and the values expressed as pg/ml for IL-4, IL-5 and γ-IFN, or as units per ml, for IL-2. Supernatants were analyzed after 24 h of culture (Initial) or alternatively, the cells were cultured for 8 days in the above forms of stimulation, the cells were recovered, washed, and then restimulated with their original treatment, and the supernatants analyzed after a further 24 h of stimulation (Restimulation). The values represent means of duplicate cultures.
Supernatants from the cell culture were analyzed for lymphokine concentration using commercially available ELISA kits and the values expressed as pg/ml for IL-4, IL-5 and γ-IFN. Supernatants were analyzed after 24 h of culture (Initial) or, alternatively, the cells were cultured for 8 days in the above forms of stimulation, and then restimulated, and the supernatants analyzed after a further 24 h period of stimulation (Restimulation). The values represent means of duplicate cultures.

[6] = test system: CD28-induced tyrosine phosphorylation; experiment: Anti-phosphotyrosine immunoblot of PMA-treated T cells; assay type: cell-based, human; conditions: T cells treated overnight with PMA 5 ng/ml and herbimycin A
Procedure: Immunoblot analysis of protein tyrosine phosphorylation. Details of the immunoblot assay with anti-phosphotyrosine antibodies has been described in Hsi, E. D. et al., J. Biol. Chem., 264:10836 (1989) and June, C. H. et al., J. Immunol., 144:1591 (1990). Cells were suspended at 5−10×10^7 cells/ml in reaction media, i.e., HBSS containing 0.8% FCS and 20 Mm Hepes at 37° C. at time—3 m and stimulated at time 0 m. mAbs were used at 10 μg/ml final concentration. For crosslinking, biotinylated mAbs were incubated with cells for 5-8 m at room temperature, the cells prewarmed at time 3 min and stimulated with avidin (Sigma Chemical Co.) at a final concentration of 40 μg/ml at time 0. Stimulation was terminated by the addition of ice-cold 10× lysis buffer, yielding a final concentration of 0.5% Triton X-100. See June, J. Immunol., supra (1990).
CD28-induced tyrosine phosphorylation prevented by CD45 and by herbimycin. […] T cells were treated overnight with PMA (5 ng/ml) in the presence of the indicated concentration of herbimycin A or in control medium. […] Detergent-soluble proteins were processed as previously described.
To address the effects of phosphatases on CD28-mediated signal transduction, T cells were cultured overnight with PMA (5 ng/ml). […] Monoclonal antibodies were crosslinked with avidin at time 0. The reaction was terminated after 2 m. […]

Daudi = experiment: Cytotoxicity of activated cells against Daudi; assay type: cell-based, human
Procedure: (§1) One lytic unit is equivalent to 20% lysis of 5×10^3 target cells per 1×10^6 effector cells as discussed in Press, H. F. et al., J. Clin. Immunol. 1:51-83 (1981). Various targets, including Daudi and K562, were tested.
In 5 different subjects, PBL were compared with T cells (E^+) in their ability to kill Daudi, K562, and BSB cells 8 days after being activated with OKT3. These experiments were performed in X-Vivo 10 supplemented with 5% human serum (HS). […]
Cytotoxicity induced by soluble or immobilized OKT3. In 7 experiments, cytotoxicity mediated by T cells after activation was compared with soluble or immobilized OKT3. […] These experiments were performed with E^+ cells in RPMI 1640 supplemented with 10% fetal bovine serum (FBS). Cytotoxicity was assessed 7 to 8 days after triggering with soluble (10 ng/ml) or immobilized (2 μg/ml) OKT3.
Either soluble OKT3 10 ng/ml(s) or immobilized OKT3 (coated with 2 μg/ml)(I) were added as indicated. […]

K562 = experiment: Cytotoxicity of activated cells against K562; assay type: cell-based, human
Procedure: as §1
In 5 different subjects, PBL were compared with T cells (E^+) in their ability to kill Daudi, K562, and BSB cells 8 days after being activated with OKT3. These experiments were performed in X-Vivo 10 supplemented with 5% human serum (HS). The mean cytotoxicity in 5 normal subjects using PBL directed at Daudi, K562, and BSB were 15.0, 7.4, and 9.2 LU, respectively. In T cells from the same 5 subjects, the mean cytotoxicity directed at Daudi, K562, and BSB were 14.3, 7.7, and 9.3 LU, respectively.
(§2) Cytotoxicity as a function of in vitro time in cell culture. […] Cytotoxicity was a strong function of culture duration however, with <0.1, 24, 3.5, 0.5, 1.0 LU at 0, 8, 15, 22, and 29 days of culture. Similar results were found when Daudi was the target, with <0.01, 23, 5, 2, and 5 LU at 0, 8, 15, 22, and 29 days of culture.
Cytotoxicity induced by soluble or immobilized OKT3. In 7 experiments, cytotoxicity mediated by T cells after activation was compared with soluble or immobilized OKT3. Both methods induced cytotoxicity directed at Daudi and K562. Soluble OKT3 activated T cells mediated a mean cytotoxicity of 27 LU (SD-18) directed at Daudi and a mean cytotoxicity of 21 LU (SD-16) directed at K562. Immobilized OKT3 activated T cells mediated a mean cytotoxicity of 22 LU (SD-16) directed at Daudi and a mean cytotoxicity of 12 LU (SD-8) directed at K562. These experiments were performed with E^+ cells in RPMI 1640 supplemented with 10% fetal bovine serum (FBS). Cytotoxicity was assessed 7 to 8 days after triggering with soluble (10 ng/ml) or immobilized (2 μg/ml) OKT3.
(§3) Although the BMMNC population initially contained only 25% CD3^+ cells, proliferative and cytotoxic responses were excellent after 2 weeks of culture. […] In 4 experiments using normal bone marrow or autologous bone marrow, there was a median of 89-fold expansion of cells (range 18- to 173-fold) after 9 to 19 days of culture. Mean cytotoxicity directed at Daudi and K562 mediated by BMMNC stimulated with OKT3 was 5.5 LU (range 2-11) and 4.3 LU (range 2-8), respectively. […] Either soluble OKT3 10 ng/ml(s) or immobilized OKT3 (coated with 2 μg/ml)(I) were added as indicated.
(§4) Proliferative and cytotoxic responses from 3 patients were tested. […] Proliferation was assessed on day 3 of culture and cytotoxicity on day 7.

PBL, T cells or BMMNC = experiment: Proliferation and expansion of PBL, T cells or BMMNC after OKT3 activation; assay type: cell-based, human; conditions: for Proliferation ^3H incorp.: day 3
Excerpt: as §2, §3, §4

[7] = RESTIMULATION after 8 days, further 24 h
[8] = BMMNC, 14 days after activation, 50 IU/ml IL-2
[9] = E+ cells, 7 to 8 days after triggering, 7 experiments, listed as Immobilized OKT3
[10] = E+ cells, 7 to 8 days after triggering, 7 experiments, listed as Soluble OKT3
[11] = PBL, 5 normal subjects, 8 days after activation

C[N+](C)(C)CCOC(N)=O [Carbacol, carbacol]
CELL DEATH (GRADE 0-2) (Jurkat line JHMI-2.2): 1+ (1+(20 to 70% of cells dead))

C[C@H](CCC(=O)O)C[C@H](C)C[C@H](C)C(=O)/C=C(\O)[C@H](C)C[C@H](C)C/C=C/[C@@H](C)[C@@H](O)[C@@H](C)[C@@H](O)C[C@@H]1CC[C@@](C)([C@H]2CC[C@@](C)([C@@H](C)O)O2)O1 [Ionomycin, ionomycin]
IFN-γ (CD28^+ T cells [1]): 0 U/ml
IL-2 (CD28^+ T cells [1]): <2 U/ml
TNF-α/LT (CD28^+ T cells [1]): 0 U/ml
S + G2 + M (CD28^+ T cells [2]): 6.6%
IL-2 [3]: < 10 U/ml

CCCCCCCCCCCCCC(=O)O[C@@H]1[C@@H](C)[C@@]2(O)[C@@H](C=C(CO)C[C@]3(O)C(=O)C(C)=C[C@@H]23)[C@@H]2C(C)(C)[C@]12OC(C)=O [PMA, phorbol myristate acetate]
IFN-γ (CD28^+ T cells [1]): 0 U/ml
IL-2 (CD28^+ T cells [1]): <2 U/ml
TNF-α/LT (CD28^+ T cells [1]): 0 U/ml
S + G2 + M (CD28^+ T cells [2]): 5.5%
^3HTdR (CD28^+ T cells [4]; Dexamethasone 0 Nm): 5,000
^3HTdR (CD28^+ T cells [4]; Dexamethasone 25 Nm): 1,400
^3H-thymidine incorporation (CD28^+ T cells [4]; cells cultured with the single agent only): less than 150 cpm
% INHIBIT (CD28^+ T cells [4]; inhibition of proliferation by dexamethasone): 72%
IL-2 [3]: < 10 U/ml
IFN (CD28^+ T cells [5]; INITIAL, 24 h of culture): 152 pg/mL
IL-2 (CD28^+ T cells [5]; INITIAL, 24 h of culture): .07 U/ml
IL-4 (CD28^+ T cells [5]; INITIAL, 24 h of culture): <1 pg/mL
IL-5 (CD28^+ T cells [5]; INITIAL, 24 h of culture): <1 pg/mL
IFN (CD28^+ T cells [5]; [7]): <1 pg/mL
IL-2 (CD28^+ T cells [5]; [7]): 0.6 U/ml
IL-4 (CD28^+ T cells [5]; [7]): <1 pg/mL
IL-5 (CD28^+ T cells [5]; [7]): <1 pg/mL

CO[C@H]1[C@@H](OC)C[C@H](C)[C@@H](OC)C2=CC(=O)C=C(NC(=O)/C(C)=C/C=C\[C@H](OC)[C@@H](OC(N)=O)/C(C)=C/[C@@H]1C)C2=O [herbimycin A]
Tyrosine phosphorylation induced by anti-CD28 mAb [6]: nearly completely prevented
PMA plus ionomycin-stimulated IL-2 secretion ([3]; herbimycin A 1 μM): resistant

OKT3: anti-CD3 mAb OKT3 (IgG2a), soluble or immobilized
mean cytotoxicity directed at Daudi (Daudi; [8]): 5.5 LU
mean cytotoxicity directed at Daudi (Daudi; [9]): 22 LU
mean cytotoxicity directed at Daudi (Daudi; [10]): 27 LU
mean cytotoxicity directed at Daudi (Daudi; [11]): 15.0 LU
mean cytotoxicity directed at Daudi (Daudi; T cells (E+), same 5 subjects): 14.3 LU
mean cytotoxicity directed at K562 (K562; [8]): 4.3 LU
mean cytotoxicity directed at K562 (K562; [9]): 12 LU
mean cytotoxicity directed at K562 (K562; [10]): 21 LU
mean cytotoxicity directed at K562 (K562; [11]): 7.4 LU
mean cytotoxicity directed at K562 (K562; T cells (E+), same 5 subjects): 7.7 LU
Proliferation ^3H incorp. (PBL, T cells or BMMNC; Bone Marrow #171, AML, Relapsed): 23,479 cpm
Proliferation ^3H incorp. (PBL, T cells or BMMNC; PBL P#632, non-Hodgkins lymphoma, pre-transplant): 58,670 cpm
Proliferation ^3H incorp. (PBL, T cells or BMMNC; PBL P#635, Hodgkins lymphoma, pre-transplant): 27,758 cpm
median expansion of cells (PBL, T cells or BMMNC; normal or autologous bone marrow, 4 experiments, 9 to 19 days): 89 fold
